Data as given in article PMC6318026 (Molecular cancer therapeutics, 2018).

Biological target: dihydroorotate dehydrogenase (DHODH) (Homo sapiens, UniProt Q02127)
Test: recombinant DHODH enzyme assay
Assay type: biochemical

dihydroorotate dehydrogenase (DHODH), sequence (Q02127 whole entry): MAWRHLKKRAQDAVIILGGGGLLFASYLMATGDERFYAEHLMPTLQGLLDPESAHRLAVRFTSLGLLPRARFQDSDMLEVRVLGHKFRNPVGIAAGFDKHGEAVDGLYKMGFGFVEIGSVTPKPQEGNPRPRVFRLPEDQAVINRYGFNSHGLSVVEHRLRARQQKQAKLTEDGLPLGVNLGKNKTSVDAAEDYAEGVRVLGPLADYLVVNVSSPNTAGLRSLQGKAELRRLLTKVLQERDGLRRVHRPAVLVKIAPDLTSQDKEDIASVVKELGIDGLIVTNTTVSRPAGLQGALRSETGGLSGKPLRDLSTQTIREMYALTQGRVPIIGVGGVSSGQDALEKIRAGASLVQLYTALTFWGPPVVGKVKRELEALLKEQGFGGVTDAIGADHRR

Compound: C/C(O)=C(\C#N)C(=O)Nc1ccc(C(F)(F)F)cc1 [teriflunomide]
- recombinant DHODH enzyme assay; isolated mitochondria assay: inhibited the activity of recombinant DHODH using in vitro enzyme assays, though not as potently as do brequinar or teriflunomide
